In data set [1] the test system is iNKT cells. Kind of data set: Cytokine production (ELISA) by iNKT cells co-cultured with antigen presenting cells (MM1S.CD1d cells or DCs), with or without α-GalCer. The class given is cell-based, human. On the procedure:
1×10^5 NKT cells from MM patients were plated in a 96-well plate with MM1S.CD1d cells or DCs at ratios of 2:1 and 4:1, respectively, with or without pre-loaded α-GalCer (100 ng/ml). 1-Oxo-2-(2,6-dioxopiperidin-3-yl)-4-aminoisoindoline (2 μM) was used as indicated, with DMSO as control. The supernatant was collected at 48 and 72 hours and the levels of IFN-γ, IL-2 and IL-4 were determined by ELISA (R&D Systems, Minneapolis, Minn.).
A general note: In an ELISA, binding on a coated surface is turned into a signal by an enzyme label.

The test system of data set [2] is iNKT cells. The data set is described as above. The class given is cell-based, human. The source holds these as a separate data set.
The conditions of data set [3]: cited from earlier work; for Interconversion in solvent systems: interconversion studies; for Hygroscopicity: polymorphic form.
Setting [4] is: iNKT cells + MM1S.CD1d cells in the absence of α-GalCer, compound 2 μM, ELISA.
Setting [5] is: iNKT cells + α-GalCer-loaded MM1S.CD1d cells, compound 2 μM vs controls (DMSO), ELISA.

As to `Nc1cccc2c1CN(C1CCC(=O)NC1=O)C2=O` (stereo not shown) [1-oxo-2-(2,6-dioxopiperidin-3-yl)-4-aminoisoindoline], the IL-4 level entry in the data set with iNKT cells [1] (iNKT cells + CD1d expressing multiple myeloma cells without α-GalCer, compound vs cells alone) is on record as “decrease”. Also, in the data set on iNKT cells [1] (setting [4]), the IFN-γ production result is “increase” and the IL-2 production result was “increase”. In the data set on iNKT cells [1] (setting [5]), the IFN-γ level result was “significant increase”, the IL-2 level entry is listed as “significant increase” and the IL-4 level entry is reported as “decrease”. Also, in the data set on iNKT cells [2] (CD1d-transfected C1R cells as antigen presenting cells), the “Increase in IFN-γ and IL-2 levels and decrease in IL-4 level” value is reported as “confirmed”. For the same molecule, in the data set on iNKT cells [2] (iNKT cells alone or co-cultured with mock MM.1S cells, with or without α-GalCer), the “Direct stimulation of iNKT cells” value was “did not directly stimulate”.
Take `Nc1cccc2c1CN(C1CCC(=O)NC1=O)C2=O` (stereo not shown) [Form E, 3-(4-amino-1-oxo-1,3 dihydro-isoindol-2-yl)-piperidene-2,6-dione]: in data set [3] (about 125° C. for about five minutes), the “Conversion upon heating (desolvation)” value is “can convert to Form B”. The “Interconversion in solvent systems” value in data set [3] was “can convert to Form C in an acetone solvent system and to Form G in a THF solvent system”.
As to `Nc1cccc2c1CN(C1CCC(=O)NC1=O)C2=O` (stereo not shown) [Form C, 3-(4-amino-1-oxo-1,3 dihydro-isoindol-2-yl)-piperidene-2,6-dione], the Hygroscopicity entry in data set [3] was “not hygroscopic below about 85% RH”.
On to `Nc1cccc2c1CN(C1CCC(=O)NC1=O)C2=O` (stereo not shown) [Form D, 3-(4-amino-1-oxo-1,3 dihydro-isoindol-2-yl)-piperidene-2,6-dione], for which the Hygroscopicity result in data set [3] was “either weakly or not hygroscopic”.
On to `Nc1cccc2c1CN(C1CCC(=O)NC1=O)C2=O` (stereo not shown) [Form A, 3-(4-amino-1-oxo-1,3 dihydro-isoindol-2-yl)-piperidene-2,6-dione], for which the “Relative stability among polymorphs” value in data set [3] (Form A: anhydrous polymorphs, Form E: aqueous solvent systems) is recorded as “most thermodynamically stable anhydrous polymorph”. The Hygroscopicity result in data set [3] was “weakly or not hygroscopic”.
As for `Nc1cccc2c1CN(C1CCC(=O)NC1=O)C2=O` (stereo not shown) [Form B, 3-(4-amino-1-oxo-1,3 dihydro-isoindol-2-yl)-piperidene-2,6-dione], the Conversion upon heating result in data set [3] (175° C. for about five minutes) is listed as “can convert to Form F”. For the same molecule, the “Interconversion in solvent systems” value in data set [3] is given as “converts to Form E in aqueous solvent systems”.

Values taken from patent US20090068210A1, “IMMUNOTHERAPY FOR HEMATOLOGICAL MALIGNANCIES” (priority 2007, published 2009).
